Experimental data: US20190298775A1, “LIVER ORGANOID COMPOSITIONS AND METHODS OF MAKING AND USING SAME” (Children's Hospital Medical Center, priority 2016, published 2019)
Read-outs that look alike come from different tables or passages of the source.

How the values were obtained:
[1] = test system: bile transport activity in liver organoids
Procedure: To determine if FD can be used for live assessment of transport capacity without exchanging the medium and adjusting exposure, chronological hepatobiliary transport activity was further investigated with time-lapse imaging. […] The opposite directionality of this transport flow was determined by the micro-injection of FD into organoids.
To quantify the inhibitory potential for FD excretion, Applicant developed a simple but robust quantification method by determining the fluorescent intensity ratio between outside and inside the organoid by image J (FIG. 4, panel B).
Fluorescein diacetate was used for evaluating bile transport activity in organoids. Around Day 25, the organoids were rinsed with PBS, and, fluorescein diacetate was treated to organoids in medium. In addition, to investigate the direction of transport, fluorescein diacetate was injected to organoids using by Nanoject III (Drummond Scientific). After treatment or injection of fluorescein diacetate, images were captured on fluorescent microscopy BZ-X710 (Keyence). […] Changes in brightness or contrast during processing were applied equally across the entire image.

human liver organoids = details: for organoid viability / cell viability: human; for organoid viability: 130 μM; for cell viability: 50 μM
lipotoxic organoid model = assay: Viability in organoids on vulnerable (lipotoxic, oleic acid) condition; type: cell-based, human
Procedure: Next, 50 μM of Troglitazone was treated with or without 50 μM NAC for 24h. […] Images were captured sequentially using fluorescent microscopy BZ-9000.

[2] = test system: human iPSC-derived liver organoids; assay: Albumin secretion of organoids (ELISA); type: cell-based
Procedure: On Day 7-8, definitive endoderm organoids with plated cells were gently pipetted to delaminate from dishes. Isolated spheroids were centrifuged at 800 rpm for 3 minutes and, after removing supernatant, embedded in 100% matrigel drop on the dishes. The plates were placed at 37° C. in an atmosphere of 5% CO2/95% air for 5-15 min. After the Matrigel was solidified, Advanced DMEM/F12 was added with B27, N2 and Retinoic acid (RA; Sigma, St. Louis, Mo.) 2 μM for 1-5 days. The media was replaced every other day. After RA treatment, organoids embedded in Matrigel drop were cultured in Hepatocyte culture medium (HCM Lonza, Walkersville, Md.) with 10 ng/mL hepatocyte growth factor (HGF; PeproTech, Rocky Hill, N.J.), 0.1 μM Dexamethasone (Dex; Sigma) and 20 ng/mL Oncostatin M (OSM; R&D Systems). Cultures for cell differentiation were maintained at 37° C. in an atmosphere of 5% CO2/95% air and the medium was replaced every 3 days. Around Day 20-30, organoids embedded in Matrigel drop were isolated by scratching and gentle pipetting for any analyses.
For measuring albumin, fibrinogen and complement factors secreted level of organoids, 200 μL of culture supernatant of organoids on Ultra-Low attachment 96 well plates (Corning) were collected. The culture supernatants were collected and stored at −80° C. until use. The supernatant was assayed with Human Albumin ELISA Quantitation Set (Bethyl Laboratories, Inc., TX, USA) and fibrinogen (Thermo Fisher Scientific) according to the manufacturer's instructions. For analyzing complement factors, supernatants were measured with Luminex System (Luminex Corporation, Austin, Tex.) according to the manufacturer's instructions. To calculate albumin production per the number of cells, the linear regression equation of cell numbers by diameter of an organoid was used. For measuring total bile acid secreted level intra-luminal organoids, fluid inside organoids was absorbed using microinjection Nanoject II (Drummond Scientific, Broomall, Pa., USA). Fluid absorbed was dilute in PBS and assayed with Total Bile Acid ELISA Kit (Antibodies-online, Inc., GA, USA). To calculate the volume of total bile acid, the number of cells in organoid was calculated using the linear regression equation in the same manner for albumin production and the molecular weight of cholic acid was used for calculation and comparing with volume in previous report.

liver organoids = assay: Lipid accumulation in organoids after oleic acid (BODIPY live staining); type: cell-based, human; details: 3 days after oleic acid treatment
Procedure: Images were captured sequentially using fluorescent microscopy BZ-9000. […] The following regents or kits were used: BODIPY® 493/503 for lipids (Thermo Fisher Scientific), and SiR Actin Kit for cytoskeleton (USA Scientific, FL, USA), CellROX® Green Reagent for ROS (Fisher Scientific), TMRM (Thermo Fisher Scientific) for mitochondria. […] ROS production, mitochondria size and number were analyzed by IMARIS 8.

Structure (SMILES): COc1ccccc1Oc1c(NS(=O)(=O)c2ccc(C(C)(C)C)cc2)nc(-c2ncccn2)nc1OCCO [Bosentan]
- efflux of FD (bile transport inhibition) [1]: significantly decreased

Structure (SMILES): CCN(CC)C(=O)/C(C#N)=C/c1cc(O)c(O)c([N+](=O)[O-])c1 [Entacapone]
- organoid viability (human liver organoids; 24 h): 85%
- organoid viability (human liver organoids; 72 h): 64%

Structure (SMILES): CC(=O)N[C@@H](CS)C(=O)O [NAC, N-acetylcysteine]
- cell viability with NAC (rescue from Troglitazone toxicity) (lipotoxic organoid model; lipotoxic condition, 50 μM Troglitazone with 50 μM NAC, 24h): significantly improved

Structure (SMILES): CCc1nn(CCCN2CCN(c3cccc(Cl)c3)CC2)c(=O)n1CCOc1ccccc1 [Nefazodone]
- efflux of FD (bile transport inhibition) [1]: significantly decreased
- cell viability at 72 hours relative to TOL, DICLO and BOS (human liver organoids): significantly lowered

Structure (SMILES): CC1=C(/C=C/C(C)=C/C=C/C(C)=C/C(=O)O)C(C)(C)CCC1 [RA, retinoic acid]
- albumin secretion level of organoids at D25 ([2]; 1 day of RA treatment): 1160 ng/mL
- albumin secretion level of organoids at D25 ([2]; 2 days of RA treatment): 1054 ng/mL
- albumin secretion level of organoids at D25 ([2]; 3 days of RA treatment): 3092 ng/mL
- albumin secretion level of organoids at D25 ([2]; 4 days of RA treatment): 4709 ng/mL
- albumin secretion level of organoids at D25 ([2]; 5 days of RA treatment): 3865 ng/mL

Structure (SMILES): CN(CCOc1ccc(CC2SC(=O)NC2=O)cc1)c1ccccn1 (stereo not shown) [Rosiglitazone]
- toxicity in steatotic organoids (lipotoxic organoid model): vulnerable

Structure (SMILES): Cc1c(C)c2c(c(C)c1O)CCC(C)(COc1ccc(CC3SC(=O)NC3=O)cc1)O2 (stereo not shown) [Troglitazone]
- efflux of FD (bile transport inhibition) [1]: significantly decreased
- cell viability at 72 hours relative to TOL, DICLO and BOS (human liver organoids): significantly lowered
- cell viability (human liver organoids; 24 h): 85%
- cell viability (human liver organoids; 72 h): 67%
- cell viability compared to control (lipotoxic organoid model; lipotoxic condition (800 μM oleic acid 3 days), 50 μM for 24h, p<0.05): −40%
- organoid morphology on lipotoxic condition (lipotoxic organoid model; lipotoxic condition, 24h): massive fragmentation of organoids

Structure (SMILES): CCCCCCCC/C=C\CCCCCCCC(=O)O [oleic acid]
- lipid accumulation in organoids (liver organoids): intense
